Marks after values point to notes of the source that are not given here.
Assays:
Caco-2 = Caco-2 permeability; type: in vitro ADME; conditions: <15 is limit of detection
CCR2 = CCR2 (Homo sapiens, UniProt P41597); experiment: CCR2 binding
human-CCR2 knock-in mice = experiment: 6-h thioglycollate; conditions: mouse, in vivo
mouse CCR2 = mouse CCR2 (Mus musculus, UniProt P51683); experiment: Activity versus mouse CCR2
wild-type mice = experiment: TG-induced peritonitis model using wild-type mice; type: in vivo, mouse; conditions: data not shown

Sequence of CCR2 (P41597 whole entry): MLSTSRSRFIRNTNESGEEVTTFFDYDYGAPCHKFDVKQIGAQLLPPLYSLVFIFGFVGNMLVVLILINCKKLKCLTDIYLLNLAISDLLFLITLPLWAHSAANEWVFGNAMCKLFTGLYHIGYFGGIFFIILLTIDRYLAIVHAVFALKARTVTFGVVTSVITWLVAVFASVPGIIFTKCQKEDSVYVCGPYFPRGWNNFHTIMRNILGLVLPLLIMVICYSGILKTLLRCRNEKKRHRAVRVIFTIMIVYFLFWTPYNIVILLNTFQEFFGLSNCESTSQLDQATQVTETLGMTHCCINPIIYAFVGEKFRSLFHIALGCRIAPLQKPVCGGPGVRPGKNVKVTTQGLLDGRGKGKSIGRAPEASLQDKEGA
Sequence of mouse CCR2 (P51683 whole entry): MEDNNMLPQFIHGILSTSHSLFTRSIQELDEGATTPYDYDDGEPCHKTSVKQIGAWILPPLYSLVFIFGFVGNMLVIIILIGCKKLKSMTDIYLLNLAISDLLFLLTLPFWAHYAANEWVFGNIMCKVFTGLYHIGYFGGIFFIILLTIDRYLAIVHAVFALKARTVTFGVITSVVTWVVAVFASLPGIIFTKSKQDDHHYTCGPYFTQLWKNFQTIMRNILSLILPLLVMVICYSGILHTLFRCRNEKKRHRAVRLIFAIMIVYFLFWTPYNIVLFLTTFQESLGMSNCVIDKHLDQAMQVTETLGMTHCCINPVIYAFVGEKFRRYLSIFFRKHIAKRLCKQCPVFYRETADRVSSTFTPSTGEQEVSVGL

For `CC(C)N(C)[C@@H]1CC[C@H](N2CC[C@H](NC(=O)c3cccc(C(F)(F)F)c3)C2=O)[C@H](CS(=O)(=O)c2ccccc2)C1` [Compound 1], the “Caco-2 PAP-BL” value (Caco-2) was <15 ^e nm/s.
With `CC(C)N(C)[C@@H]1CC[C@H](N2CC[C@H](NC(=O)c3cccc(C(F)(F)F)c3)C2=O)[C@H](CS(C)(=O)=O)C1` [Compound 2] the “loss in CCR2 binding affinity as compared to 1” value (CCR2; compared to 1) was ~2 fold, the “inflammatory monocytes (Ly6C+F4/80+) in blood as compared to vehicle” value (human-CCR2 knock-in mice) was “significant reduction” and the “activity versus mouse CCR2” value (mouse CCR2) was “poor activity”. For the same compound, the “Caco-2 PAP-BL” value (Caco-2) was <15 nm/s.
For `CCS(=O)(=O)C[C@@H]1C[C@H](N(C)C(C)C)CC[C@@H]1N1CC[C@H](NC(=O)c2cccc(C(F)(F)F)c2)C1=O` [Compound 8], the IC50 (CCR2) was 1.3 ± 0.02 nM and the “Caco-2 PAP-BL” value (Caco-2) was <15 nm/s.
`CC(C)N(C)[C@@H]1CC[C@H](N2CC[C@H](NC(=O)c3cccc(C(F)(F)F)c3)C2=O)[C@H](CS(=O)(=O)C(C)C)C1` [Compound 10] was tested, and the “increase in CCR2 binding affinity as compared to 2” value (CCR2; compared to 2) was 6 fold and the “Caco-2 PAP-BL” value (Caco-2) was <15 nm/s.
In the case of `CC(C)N(C)[C@@H]1CC[C@H](N2CC[C@H](NC(=O)c3cccc(C(F)(F)F)c3)C2=O)[C@H](CS(=O)(=O)C(C)(C)C)C1` [Compound 12], the “activity versus mouse CCR2” value (mouse CCR2) is reported as “poor activity”, the “activity in TG-induced peritonitis model” value (wild-type mice) is reported as “did not show any activity” and the “Caco-2 PAP-BL” value (Caco-2) is reported as 30 nm/s.

Source: PMC4539253 (Bioorganic & medicinal chemistry letters, 2014)
